According to patent US20010006697A1, “Composition and method for producing low cholesterol eggs” (priority 1997, published 2001):
“And” between values parts separate entries of the source, which are not always exact repeats. Equal values may be shown once. Read-outs that look alike come from different tables or passages of the source. Marks after values point to notes of the source that are not given here.

What was measured:
laying hens [1] = assay: Yolk cholesterol contents of eggs from statin-treated laying hens; format: in vivo, White Leghorn hens
Experimental: Agric. […] Hens were treated as described in Example 1. […] The eggs were hard-cooked, and the yolks were separated, weighed, and crumbled. […] Agric. […] Egg homogenate filtrates were analyzed for cholesterol as described in Rudel, L. L. and Morris, M. D., J. Lipid Res. 14:364-366 (1973).

laying hens [2] = assay: Egg production, egg weights and yolk weights of statin-treated laying hens; format: in vivo, White Leghorn hens
Experimental: Hens were treated as described in Example 1. Egg yolk was weighed as outlined in Example 2.

[3] = test system: apolipoprotein B (apoB) mRNA; assay: Northern blot of liver mRNA: apoB; format: in vivo, White Leghorn hens; details: normalized by 18S rRNA; day 35
From the text: Endocrinol. […] Endocrinol.

laying hens [4] = details: 0.03% or 0.06% of diet; day 35
laying hens [5] = details: 0.03% or 0.06% of diet; day 35; remark: listed apart in the source
plasma VLDL particles [6] = details: day 35
plasma VLDL particles [7] = details: day 35; remark: listed apart in the source
[8] = test system: microsomal triglyceride transport protein (MTP) large subunit mRNA; details: normalized by 18S rRNA; day 35
laying hens [9] = assay: Liver cholesterol content; details: day 35
[10] = Liver weight of statin-treated laying hens; details: day 35
[11] = 0.06% of diet, week 5 (maximal reduction for simvastatin, lovastatin)
[12] = 0.03% of diet, Overall (weeks 1-5)
[13] = 0.06% of diet, Overall (weeks 1-5)

Egg weight, g (laying hens [2]; [12]): 65.0 ± 1.4^a (155) g
Hen-day egg production, % (laying hens [2]; [12]): 88.6 ± 2.4^a (155) %
Yolk weight, g (laying hens [2]; [12]): 17.7 ± 0.2^a (25) g
Egg weight, g (laying hens [2]; 0.03% of diet, Week 1): 64.9 ± 0.7^a g
Hen-day egg production, % (laying hens [2]; 0.03% of diet, Week 1): 91.4 ± 1.2^a %
Yolk weight, g (laying hens [2]; 0.03% of diet, Week 1): 17.9 ± 0.7^a g
Egg weight, g (laying hens [2]; 0.03% of diet, Week 2): 64.3 ± 0.8^a,b g
Hen-day egg production, % (laying hens [2]; 0.03% of diet, Week 2): 88.6 ± 1.0^a %
Yolk weight, g (laying hens [2]; 0.03% of diet, Week 2): 17.4 ± 0.8^a g
Egg weight, g (laying hens [2]; 0.03% of diet, Week 3): 65.1 ± 0.7^a g
Hen-day egg production, % (laying hens [2]; 0.03% of diet, Week 3): 85.7 ± 1.0^a %
Yolk weight, g (laying hens [2]; 0.03% of diet, Week 3): 17.8 ± 0.5^a g
Egg weight, g (laying hens [2]; 0.03% of diet, Week 4): 65.8 ± 0.6^a g
Hen-day egg production, % (laying hens [2]; 0.03% of diet, Week 4): 88.6 ± 1.8^a %
Yolk weight, g (laying hens [2]; 0.03% of diet, Week 4): 17.8 ± 0.4^a g
Egg weight, g (laying hens [2]; 0.03% of diet, Week 5): 64.7 ± 0.7^a g
Hen-day egg production, % (laying hens [2]; 0.03% of diet, Week 5): 88.6 ± 1.0^a %
Yolk weight, g (laying hens [2]; 0.03% of diet, Week 5): 17.8 ± 0.5^a g
effect on production variables (egg production, egg weight, yolk weight) (laying hens [2]; 0.03% or 0.06% of diet, P>0.05): did not affect
Egg weight, g (laying hens [2]; [13]): 63.8 ± 1.8^a (155) g
Hen-day egg production, % (laying hens [2]; [13]): 88.6 ± 2.9^a (155) %
Yolk weight, g (laying hens [2]; [13]): 17.4 ± 0.3^a (25) g
Egg weight, g (laying hens [2]; 0.06% of diet, Week 1): 62.6 ± 1.9^a g
Hen-day egg production, % (laying hens [2]; 0.06% of diet, Week 1): 88.6 ± 1.0^a,b %
Yolk weight, g (laying hens [2]; 0.06% of diet, Week 1): 17.4 ± 1.0^a g
Egg weight, g (laying hens [2]; 0.06% of diet, Week 2): 64.0 ± 0.7^a,b g
Hen-day egg production, % (laying hens [2]; 0.06% of diet, Week 2): 85.7 ± 1.5^a,b %
Yolk weight, g (laying hens [2]; 0.06% of diet, Week 2): 17.3 ± 0.7^a g
Egg weight, g (laying hens [2]; 0.06% of diet, Week 3): 65.3 ± 1.1^a g
Hen-day egg production, % (laying hens [2]; 0.06% of diet, Week 3): 88.6 ± 1.0^a %
Yolk weight, g (laying hens [2]; 0.06% of diet, Week 3): 17.7 ± 0.6^a g
Egg weight, g (laying hens [2]; 0.06% of diet, Week 4): 63.3 ± 0.8^b,c g
Hen-day egg production, % (laying hens [2]; 0.06% of diet, Week 4): 88.6 ± 1.8^a %
Yolk weight, g (laying hens [2]; 0.06% of diet, Week 4): 17.2 ± 0.9^a,b g
Egg weight, g (laying hens [2]; 0.06% of diet, Week 5): 62.9 ± 0.8^a,b g
Hen-day egg production, % (laying hens [2]; 0.06% of diet, Week 5): 91.4 ± 1.2^a %
Yolk weight, g (laying hens [2]; 0.06% of diet, Week 5): 17.3 ± 0.7^a g
Liver Weight g ([10]; 0.03% of diet): 31.4 ± 1.4^b g
Liver Weight g/100 g BW ([10]; 0.03% of diet): 1.81 ± 0.09^a,b g/100 g BW
Liver Weight g ([10]; 0.06% of diet): 28.8 ± 0.9^b,c g
Liver Weight g/100 g BW ([10]; 0.06% of diet): 1.76 ± 0.05^b g/100 g BW
SMILES: CC[C@H](C)C(=O)O[C@H]1C[C@@H](C)C=C2C=C[C@H](C)[C@H](CC[C@@H]3C[C@@H](O)CC(=O)O3)[C@H]21 [Lovastatin]
Yolk cholesterol content, mg cholesterol/g yolk (laying hens [1]; 0.03% of diet, Week 0): 11.0 ± 0.2^a mg cholesterol/g yolk
Yolk cholesterol content, mg cholesterol/yolk (laying hens [1]; 0.03% of diet, Week 0): 195.7 ± 6.8^a mg cholesterol/yolk
Yolk cholesterol content, mg cholesterol/g yolk (laying hens [1]; 0.03% of diet, Week 1): 10.7 ± 0.2^b mg cholesterol/g yolk
Yolk cholesterol content, mg cholesterol/yolk (laying hens [1]; 0.03% of diet, Week 1): 192.2 ± 6.5^a mg cholesterol/yolk
Yolk cholesterol content, mg cholesterol/g yolk (laying hens [1]; 0.03% of diet, Week 2): 11.1 ± 0.2^a,b mg cholesterol/g yolk
Yolk cholesterol content, mg cholesterol/yolk (laying hens [1]; 0.03% of diet, Week 2): 193.8 ± 6.6^a mg cholesterol/yolk
Yolk cholesterol content, mg cholesterol/g yolk (laying hens [1]; 0.03% of diet, Week 3): 10.8 ± 0.2^b mg cholesterol/g yolk
Yolk cholesterol content, mg cholesterol/yolk (laying hens [1]; 0.03% of diet, Week 3): 192.3 ± 5.1^a mg cholesterol/yolk
Yolk cholesterol content, mg cholesterol/g yolk (laying hens [1]; 0.03% of diet, Week 4): 10.9 ± 0.2^a,b mg cholesterol/g yolk
Yolk cholesterol content, mg cholesterol/yolk (laying hens [1]; 0.03% of diet, Week 4): 193.9 ± 4.2^a mg cholesterol/yolk
Yolk cholesterol content, mg cholesterol/g yolk (laying hens [1]; 0.03% of diet, Week 5): 10.8 ± 0.1^b mg cholesterol/g yolk
Yolk cholesterol content, mg cholesterol/yolk (laying hens [1]; 0.03% of diet, Week 5): 193.6 ± 4.0^a,b mg cholesterol/yolk
Yolk cholesterol content, mg cholesterol/g yolk (laying hens [1]; 0.06% of diet, Week 0): 10.9 ± 0.1^a mg cholesterol/g yolk
Yolk cholesterol content, mg cholesterol/yolk (laying hens [1]; 0.06% of diet, Week 0): 197.8 ± 4.3^a mg cholesterol/yolk
Yolk cholesterol content, mg cholesterol/g yolk (laying hens [1]; 0.06% of diet, Week 1): 10.7 ± 0.1^b mg cholesterol/g yolk
Yolk cholesterol content, mg cholesterol/yolk (laying hens [1]; 0.06% of diet, Week 1): 185.5 ± 8.4^a,b mg cholesterol/yolk
Yolk cholesterol content, mg cholesterol/g yolk (laying hens [1]; 0.06% of diet, Week 2): 10.8 ± 0.1^b,c mg cholesterol/g yolk
Yolk cholesterol content, mg cholesterol/g yolk (laying hens [1]; 0.06% of diet, Week 3): 10.5 ± 0.1^b,c mg cholesterol/g yolk
Yolk cholesterol content, mg cholesterol/yolk (laying hens [1]; 0.06% of diet, Week 3): 184.6 ± 5.1^a,b mg cholesterol/yolk
Yolk cholesterol content, mg cholesterol/g yolk (laying hens [1]; 0.06% of diet, Week 4): 10.9 ± 0.2^a,b mg cholesterol/g yolk
Yolk cholesterol content, mg cholesterol/yolk (laying hens [1]; 0.06% of diet, Week 4): 187.1 ± 7.2^a,b mg cholesterol/yolk
Yolk cholesterol content, mg cholesterol/g yolk (laying hens [1]; 0.06% of diet, Week 5): 10.8 mg cholesterol/g yolk and 10.8 ± 0.1^b mg cholesterol/g yolk
Yolk cholesterol content, mg cholesterol/yolk (laying hens [1]; 0.06% of diet, Week 5): 186.9 mg cholesterol/yolk and 186.9 ± 4.3^a,b mg cholesterol/yolk
yolk cholesterol reduction from control on a per yolk (egg) basis (laying hens [1]; [11]): 7%
yolk cholesterol reduction from control per g of yolk (mg/g basis) (laying hens [1]; [11]): 7%
hepatic apoB mRNA, linear contrasts (P≦0.05) [3]: control>lovastatin
effect on plasma total cholesterol (plasma lipid variables) (laying hens [4]): did not significantly affect
effect on plasma triglycerides (plasma lipid variables) (laying hens [5]): did not significantly affect
Plasma VLDL particle Diameter nm (plasma VLDL particles [6]; 0.03% of diet): 35.5 ± 0.1^a,b nm
Plasma VLDL particle Diameter nm (plasma VLDL particles [6]; 0.06% of diet): 34.8 ± 0.1^a,b nm
Plasma VLDL composition: EC (esterified cholesterol) (plasma VLDL particles [7]; 0.03% of diet): 0.06 ± 0.01^a,b %
Plasma VLDL composition: PC (phosphatidylcholine) (plasma VLDL particles [7]; 0.03% of diet): 11.99 ± 0.18^b %
Plasma VLDL composition: PE (phosphatidylethanolamine) (plasma VLDL particles [7]; 0.03% of diet): 3.76 ± 0.33^a %
Plasma VLDL composition: Protein (plasma VLDL particles [7]; 0.03% of diet): 17.37 ± 0.70^a %
Plasma VLDL composition: SM (sphingomyelin) (plasma VLDL particles [7]; 0.03% of diet): 1.08 ± 0.31^a %
Plasma VLDL composition: TG (triglyceride) (plasma VLDL particles [7]; 0.03% of diet): 62.78 ± 1.01^a %
Plasma VLDL composition: UC (unesterified cholesterol) (plasma VLDL particles [7]; 0.03% of diet): 2.94 ± 0.11^a %
Plasma VLDL composition: EC (esterified cholesterol) (plasma VLDL particles [7]; 0.06% of diet): 0.08 ± 0.02^a,b %
Plasma VLDL composition: PC (phosphatidylcholine) (plasma VLDL particles [7]; 0.06% of diet): 12.07 ± 0.82^b %
Plasma VLDL composition: PE (phosphatidylethanolamine) (plasma VLDL particles [7]; 0.06% of diet): 3.46 ± 0.93^a %
Plasma VLDL composition: Protein (plasma VLDL particles [7]; 0.06% of diet): 19.96 ± 1.32^a %
Plasma VLDL composition: SM (sphingomyelin) (plasma VLDL particles [7]; 0.06% of diet): 0.66 ± 0.23^a %
Plasma VLDL composition: TG (triglyceride) (plasma VLDL particles [7]; 0.06% of diet): 60.74 ± 1.22^a %
Plasma VLDL composition: UC (unesterified cholesterol) (plasma VLDL particles [7]; 0.06% of diet): 3.03 ± 0.34^a %
hepatic MTP large subunit mRNA, linear contrasts (P≦0.05) [8]: lovastatin>atorvastatin
Liver Cholesterol mg/g liver (laying hens [9]; 0.03% of diet): 3.0 ± 0.05^b,c mg/g liver
Liver Cholesterol mg/liver (laying hens [9]; 0.03% of diet): 95.7 ± 3.3^a mg/liver
Liver Cholesterol mg/g liver (laying hens [9]; 0.06% of diet): 3.1 ± 0.07^b mg/g liver
Liver Cholesterol mg/liver (laying hens [9]; 0.06% of diet): 90.2 ± 3.6^a mg/liver
